Experimental data taken from patent publication EP1351977B1, “ANTIMICROBIAL PSEUDOPEPTIDES” (INSTITUT NATIONAL DE LA RECHERCHE AGRONOMIQUE (INRA), priority 2001, dated 2004).
Like-named read-outs stand apart in the source and are kept apart here. Ends that are not written are not given here.

Tests used:
Assay type in all cases: cell-based
Septoria tritici sp = assay: Antifungal growth inhibition test in liquid medium
Rhizoctonia solani myc = assay: Antifungal growth inhibition test in liquid medium
Bacillus megaterium = assay: Bacterial growth inhibition test in Petri dish (solid medium), MIC; settings: MIC extrapolated from inhibition diameter vs log10 concentration
Enterococcus sp. = assay: Bacterial growth inhibition test in microplates (liquid medium), MIC, nosocomial bacteria; settings: microplate test, TSB, 24h; nosocomial strain
Method: (§1) Deux tests ont été utilisés pour mesurer l'activité antibactérienne des pseudopeptides, un test d'inhibition de la croissance bactérienne en microplaques (de 96 puits) en milieu liquide et un test d'inhibition de la croissance bactérienne en boîte de Pétri en milieu solide. • * Test en microplaques: La culture bactérienne à tester est prélevée en phase exponentielle, puis diluée au 1/500^ème dans du milieu liquide TSB frais. Chaque puits de la microplaque est rempli avec 100 µl de suspension bactérienne diluée. Dans le premier puits, 100 µl de l'échantillon de pseudopeptide à tester est ajouté à la suspension bactérienne, puis l'échantillon est dilué de 2 en 2 en transférant d'un puits à l'autre 100 µl de suspension. La lecture de la microplaque se fait en mesurant la densité optique à […] (DO600nm) après 24h d'incubation à 28°C ou 37°C selon les bactéries cibles. Connaissant la concentration en pseudopeptide de l'échantillon de départ, ce test permet de déterminer la valeur de la CMI (Concentration Minimale d'Inhibition de la croissance bactérienne). Dans ce test, la CMI correspond à la concentration de l'échantillon pour lequel la DO600nm est inférieure à celle du témoin de culture. • * Test en boîte de Pétri: La culture bactérienne à tester est prélevée en phase exponentielle, puis incorporée à 10 ml d'une gélose dite "sous-couche" (Agarose 1% poids/vol; NaCl 100 mM; Trypcase 0.03 % poids/vol; Tampon phosphate 10 mM pH7.4) à raison de 2.10^5 bactéries/ml. Le mélange est coulé dans une boîte de Pétri ordinaire. 9 puits d'environ 10 µl de volume sont formés dans la "sous-couche" à l'aide d'un embout de pipette stérile de 10 ml. Ces puits sont remplis avec une série de dilutions des pseudopeptides à tester (concentration initiale 500 µg/ml, et dilution de deux en deux jusqu'à 1,95 µg/ml). Après diffusion à température ambiante pendant 2h, une gélose dite "sur-couche" (Agarose 1% wt/vol; Trypcase 6 % wt/vol; Tampon phosphate 10 mM pH7.4) est ajoutée sur la sous-couche à raison de 5 à 10 ml. Après solidification, l'ensemble est mis à incuber pendant une nuit. Le diamètre d'inhibition de la culture bactérienne autour de chaque puits est mesuré en mm; il existe une relation linéaire entre le diamètre d'inhibition et le log10 de la concentration en pseudopeptide qui permet de déterminer par extrapolation la valeur de la CMI.
(§2) Une seconde série de résultats a été obtenue en utilisant le test en microplaques vis-à-vis de bactéries nosocomiales issues de la collection du laboratoire de Bactériologie Médicale du Centre Hospitalier Universitaire de Nîmes (France). Dans cette série, seul le pseudopeptide contenu dans la fraction 8 a été testé (Tableau 5).

Enterobacter aerogenes = assay: as above; settings: microplate test, TSB, 24h; nosocomial strain
Method: as §1, §2

Pseudomonas aeruginosa = assay: as above; settings: microplate test, TSB, 24h; nosocomial strain
Method: as §1, §2

[1] = test system: Stenotrophomonas maltophilia; assay: as above; settings: microplate test, TSB, 24h; nosocomial strain
Method: as §1, §2

Staphylococcus aureus [2] = assay: as above; settings: microplate test, TSB, 24h; nosocomial strain
Method: as §1, §2

Botrytis cinerea sp = assay: Antifungal growth inhibition test in liquid medium
Piricularia oryzae sp = test system: Piricularia oryzae sp
[3] = test system: Proteus vulgaris CIP58.60; assay: Bacterial growth inhibition test in Petri dish (solid medium), MIC; settings: MIC extrapolated from inhibition diameter vs log10 concentration
[4] = test system: Helminthosporium teres sp; assay: Antifungal growth inhibition test in liquid medium
Streptococcus Gr. D = assay: Bacterial growth inhibition test in Petri dish (solid medium), MIC; settings: MIC extrapolated from inhibition diameter vs log10 concentration
Cladosporium myc = assay: Antifungal growth inhibition test in liquid medium
Cladosporium sp = assay: Antifungal growth inhibition test in liquid medium
Escherichia coli CIP548 = assay: Bacterial growth inhibition test in Petri dish (solid medium), MIC; settings: MIC extrapolated from inhibition diameter vs log10 concentration
Klebsiella pneumoniae = assay: as above; settings: MIC extrapolated from inhibition diameter vs log10 concentration
Pseudomonas fluorescens = assay: as above; settings: MIC extrapolated from inhibition diameter vs log10 concentration
Botrytis cinerea myc = assay: Antifungal growth inhibition test in liquid medium
Staphylococcus aureus [5] = assay: Bacterial growth inhibition test in Petri dish (solid medium), MIC; settings: MIC extrapolated from inhibition diameter vs log10 concentration

Substance: Composé 8: pseudopeptide du pic n° 8 de Xenorhabdus nematophilus F1; Famille 1: Lys Lys Lys Lys Lys Gly; 1066 Da; structure en Figure 2 (KKKKKG; also: pseudopeptide modifications)
- pourcentage d'inhibition de croissance (Septoria tritici sp; 10 ppm): 87%
- pourcentage d'inhibition de croissance (Septoria tritici sp; 20 ppm): 88%
- pourcentage d'inhibition de croissance (Septoria tritici sp; 40 ppm): 86%
- pourcentage d'inhibition de croissance (Rhizoctonia solani myc; 10 ppm): 56%
- pourcentage d'inhibition de croissance (Rhizoctonia solani myc; 20 ppm): 91%
- pourcentage d'inhibition de croissance (Rhizoctonia solani myc; 40 ppm): 93%
- CMI (Bacillus megaterium): 1,5 µg/ml
- CMI (Enterococcus sp.): 12,5 µg/ml
- CMI (Enterobacter aerogenes): 25 µg/mL
- CMI (Pseudomonas aeruginosa): 12,5 µg/ml
- CMI [1]: 25 µg/mL
- CMI (Staphylococcus aureus [2]): 25 µg/mL
- pourcentage d'inhibition de croissance (Botrytis cinerea sp; 10 ppm): 52%
- pourcentage d'inhibition de croissance (Botrytis cinerea sp; 20 ppm): 95%
- pourcentage d'inhibition de croissance (Botrytis cinerea sp; 40 ppm): 94%
- pourcentage d'inhibition de croissance (Piricularia oryzae sp; 10 ppm): 30%
- pourcentage d'inhibition de croissance (Piricularia oryzae sp; 20 ppm): 35%
- pourcentage d'inhibition de croissance (Piricularia oryzae sp; 40 ppm): 45%
- CMI [3]: 100 µg/mL
- pourcentage d'inhibition de croissance ([4]; 10 ppm): 76%
- pourcentage d'inhibition de croissance ([4]; 20 ppm): 94%
- pourcentage d'inhibition de croissance ([4]; 40 ppm): 92%
- CMI (Streptococcus Gr. D): 200 µg/mL
- pourcentage d'inhibition de croissance (Cladosporium myc; 10 ppm): 70%
- pourcentage d'inhibition de croissance (Cladosporium myc; 20 ppm): 92%
- pourcentage d'inhibition de croissance (Cladosporium myc; 40 ppm): 91%
- pourcentage d'inhibition de croissance (Cladosporium sp; 10 ppm): 94%
- pourcentage d'inhibition de croissance (Cladosporium sp; 20 ppm): 94%
- pourcentage d'inhibition de croissance (Cladosporium sp; 40 ppm): 94%
- CMI (Escherichia coli CIP548): 7,5 µg/ml
- CMI (Klebsiella pneumoniae): 15 µg/mL
- CMI (Pseudomonas fluorescens): 3 µg/mL
- pourcentage d'inhibition de croissance (Botrytis cinerea myc; 10 ppm): 40%
- pourcentage d'inhibition de croissance (Botrytis cinerea myc; 20 ppm): 70%
- pourcentage d'inhibition de croissance (Botrytis cinerea myc; 40 ppm): 93%
- CMI (Staphylococcus aureus [5]): 15 µg/mL
